Test system: A375_aEGFR2
Test: pERK immunofluorescence normalised to no-drug reference (=1); higher = more ERK phosphorylation (less pathway inhibition)
Settings: drug treatment time 24 h, EGF time 8 h
Description: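 A375 CRISPRa-EGFR (A375_aEGFR2) or HT29 cells were treated with two-drug dose combinations (vemurafenib, LY3009120, cobimetinib) for 24 h, then stimulated with EGF (100 ng/mL) or mock medium for 8 h. pERK (T202/Y204) was measured by immunofluorescence as the cytosolic population average, normalised to an untreated no-drug reference of the block (=1). Averages of 2 technical replicates. A375 in 5% FBS, HT29 in 10% FBS.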

CCCS(=O)(=O)Nc1ccc(F)c(C(=O)c2c[nH]c3ncc(-c4ccc(Cl)cc4)cc23)c1F [Vemurafenib] + CNc1ncc2cc(-c3cc(NC(=O)NCCC(C)(C)C)c(F)cc3C)c(C)nc2n1 [LY3009120]
pERK immunofluorescence normalised
Settings	EGF 0 ng/mL	EGF 100 ng/mL
drug A concentration 0 µM, drug B concentration 0.0001 µM	1.02	1.04
drug A concentration 0 µM, drug B concentration 0.000316228 µM	1.03	1.07
drug A concentration 0 µM, drug B concentration 0.001 µM	1.06	1.02
drug A concentration 0 µM, drug B concentration 0.00316228 µM	0.865	0.989
drug A concentration 0 µM, drug B concentration 0.01 µM	0.696	0.807
drug A concentration 0 µM, drug B concentration 0.0316228 µM	0.376	0.565
drug A concentration 0 µM, drug B concentration 0.1 µM	0.193	0.368
drug A concentration 0 µM, drug B concentration 0.316228 µM	0.157	0.264
drug A concentration 0 µM, drug B concentration 1 µM	0.149	0.175
drug A concentration 0 µM, drug B concentration 3.16228 µM	0.153	0.149
drug A concentration 0.000316228 µM, drug B concentration 0 µM	1.03	0.99
drug A concentration 0.000316228 µM, drug B concentration 0.0001 µM	1.03	0.996
drug A concentration 0.000316228 µM, drug B concentration 0.000316228 µM	1.03	1.02
drug A concentration 0.000316228 µM, drug B concentration 0.001 µM	0.876	0.959
drug A concentration 0.000316228 µM, drug B concentration 0.00316228 µM	0.793	0.849
drug A concentration 0.000316228 µM, drug B concentration 0.01 µM	0.488	0.648
drug A concentration 0.000316228 µM, drug B concentration 0.0316228 µM	0.263	0.454
drug A concentration 0.000316228 µM, drug B concentration 0.1 µM	0.168	0.312
drug A concentration 0.000316228 µM, drug B concentration 0.316228 µM	0.151	0.206
drug A concentration 0.000316228 µM, drug B concentration 1 µM	0.15	0.155
drug A concentration 0.000316228 µM, drug B concentration 3.16228 µM	0.15	0.14
drug A concentration 0.001 µM, drug B concentration 0 µM	1	1.02
drug A concentration 0.001 µM, drug B concentration 0.0001 µM	1.01	0.999
drug A concentration 0.001 µM, drug B concentration 0.000316228 µM	0.997	0.982
drug A concentration 0.001 µM, drug B concentration 0.001 µM	0.96	0.953
drug A concentration 0.001 µM, drug B concentration 0.00316228 µM	0.806	0.892
drug A concentration 0.001 µM, drug B concentration 0.01 µM	0.501	0.635
drug A concentration 0.001 µM, drug B concentration 0.0316228 µM	0.278	0.468
drug A concentration 0.001 µM, drug B concentration 0.1 µM	0.168	0.331
drug A concentration 0.001 µM, drug B concentration 0.316228 µM	0.148	0.215
drug A concentration 0.001 µM, drug B concentration 1 µM	0.15	0.156
drug A concentration 0.001 µM, drug B concentration 3.16228 µM	0.149	0.134
drug A concentration 0.00316228 µM, drug B concentration 0 µM	0.995	0.977
drug A concentration 0.00316228 µM, drug B concentration 0.0001 µM	1.05	0.996
drug A concentration 0.00316228 µM, drug B concentration 0.000316228 µM	0.961	1.04
drug A concentration 0.00316228 µM, drug B concentration 0.001 µM	0.922	0.953
drug A concentration 0.00316228 µM, drug B concentration 0.00316228 µM	0.781	0.836
drug A concentration 0.00316228 µM, drug B concentration 0.01 µM	0.534	0.641
drug A concentration 0.00316228 µM, drug B concentration 0.0316228 µM	0.27	0.456
drug A concentration 0.00316228 µM, drug B concentration 0.1 µM	0.167	0.305
drug A concentration 0.00316228 µM, drug B concentration 0.316228 µM	0.145	0.212
drug A concentration 0.00316228 µM, drug B concentration 1 µM	0.15	0.154
drug A concentration 0.00316228 µM, drug B concentration 3.16228 µM	0.149	0.139
drug A concentration 0.01 µM, drug B concentration 0 µM	0.897	0.969
drug A concentration 0.01 µM, drug B concentration 0.0001 µM	0.912	0.967
drug A concentration 0.01 µM, drug B concentration 0.000316228 µM	0.891	0.96
drug A concentration 0.01 µM, drug B concentration 0.001 µM	0.889	0.91
drug A concentration 0.01 µM, drug B concentration 0.00316228 µM	0.732	0.789
drug A concentration 0.01 µM, drug B concentration 0.01 µM	0.471	0.625
drug A concentration 0.01 µM, drug B concentration 0.0316228 µM	0.28	0.469
drug A concentration 0.01 µM, drug B concentration 0.1 µM	0.165	0.311
drug A concentration 0.01 µM, drug B concentration 0.316228 µM	0.15	0.205
drug A concentration 0.01 µM, drug B concentration 1 µM	0.153	0.157
drug A concentration 0.01 µM, drug B concentration 3.16228 µM	0.148	0.138
drug A concentration 0.0316228 µM, drug B concentration 0 µM	0.695	0.896
drug A concentration 0.0316228 µM, drug B concentration 0.0001 µM	0.759	0.9
drug A concentration 0.0316228 µM, drug B concentration 0.000316228 µM	0.727	0.935
drug A concentration 0.0316228 µM, drug B concentration 0.001 µM	0.745	0.852
drug A concentration 0.0316228 µM, drug B concentration 0.00316228 µM	0.669	0.768
drug A concentration 0.0316228 µM, drug B concentration 0.01 µM	0.457	0.635
drug A concentration 0.0316228 µM, drug B concentration 0.0316228 µM	0.251	0.454
drug A concentration 0.0316228 µM, drug B concentration 0.1 µM	0.166	0.319
drug A concentration 0.0316228 µM, drug B concentration 0.316228 µM	0.146	0.216
drug A concentration 0.0316228 µM, drug B concentration 1 µM	0.152	0.156
drug A concentration 0.0316228 µM, drug B concentration 3.16228 µM	0.15	0.138
drug A concentration 0.1 µM, drug B concentration 0 µM	0.453	0.761
drug A concentration 0.1 µM, drug B concentration 0.0001 µM	0.436	0.789
drug A concentration 0.1 µM, drug B concentration 0.000316228 µM	0.465	0.802
drug A concentration 0.1 µM, drug B concentration 0.001 µM	0.482	0.771
drug A concentration 0.1 µM, drug B concentration 0.00316228 µM	0.416	0.719
drug A concentration 0.1 µM, drug B concentration 0.01 µM	0.321	0.61
drug A concentration 0.1 µM, drug B concentration 0.0316228 µM	0.206	0.45
drug A concentration 0.1 µM, drug B concentration 0.1 µM	0.161	0.329
drug A concentration 0.1 µM, drug B concentration 0.316228 µM	0.152	0.229
drug A concentration 0.1 µM, drug B concentration 1 µM	0.151	0.161
drug A concentration 0.1 µM, drug B concentration 3.16228 µM	0.147	0.137
drug A concentration 0.316228 µM, drug B concentration 0 µM	0.252	0.767
drug A concentration 0.316228 µM, drug B concentration 0.0001 µM	0.262	0.764
drug A concentration 0.316228 µM, drug B concentration 0.000316228 µM	0.264	0.746
drug A concentration 0.316228 µM, drug B concentration 0.001 µM	0.292	0.721
drug A concentration 0.316228 µM, drug B concentration 0.00316228 µM	0.295	0.653
drug A concentration 0.316228 µM, drug B concentration 0.01 µM	0.266	0.579
drug A concentration 0.316228 µM, drug B concentration 0.0316228 µM	0.203	0.431
drug A concentration 0.316228 µM, drug B concentration 0.1 µM	0.158	0.293
drug A concentration 0.316228 µM, drug B concentration 0.316228 µM	0.146	0.19
drug A concentration 0.316228 µM, drug B concentration 1 µM	0.149	0.149
drug A concentration 0.316228 µM, drug B concentration 3.16228 µM	0.146	0.137
drug A concentration 1 µM, drug B concentration 0 µM	0.192	0.784
drug A concentration 1 µM, drug B concentration 0.0001 µM	0.185	0.755
drug A concentration 1 µM, drug B concentration 0.000316228 µM	0.191	0.728
drug A concentration 1 µM, drug B concentration 0.001 µM	0.204	0.725
drug A concentration 1 µM, drug B concentration 0.00316228 µM	0.211	0.678
drug A concentration 1 µM, drug B concentration 0.01 µM	0.201	0.598
drug A concentration 1 µM, drug B concentration 0.0316228 µM	0.184	0.467
drug A concentration 1 µM, drug B concentration 0.1 µM	0.159	0.308
drug A concentration 1 µM, drug B concentration 0.316228 µM	0.152	0.195
drug A concentration 1 µM, drug B concentration 1 µM	0.149	0.149
drug A concentration 1 µM, drug B concentration 3.16228 µM	0.152	0.137
drug A concentration 3.16228 µM, drug B concentration 0 µM	0.176	0.761
drug A concentration 3.16228 µM, drug B concentration 0.0001 µM	0.165	0.663
drug A concentration 3.16228 µM, drug B concentration 0.000316228 µM	0.172	0.678
drug A concentration 3.16228 µM, drug B concentration 0.001 µM	0.168	0.701
drug A concentration 3.16228 µM, drug B concentration 0.00316228 µM	0.171	0.649
drug A concentration 3.16228 µM, drug B concentration 0.01 µM	0.169	0.625
drug A concentration 3.16228 µM, drug B concentration 0.0316228 µM	0.165	0.508
drug A concentration 3.16228 µM, drug B concentration 0.1 µM	0.156	0.337
drug A concentration 3.16228 µM, drug B concentration 0.316228 µM	0.145	0.197
drug A concentration 3.16228 µM, drug B concentration 1 µM	0.147	0.15
drug A concentration 3.16228 µM, drug B concentration 3.16228 µM	0.15	0.156
drug A concentration 10 µM, drug B concentration 0 µM	0.164	0.668
drug A concentration 10 µM, drug B concentration 0.0001 µM	0.172	0.644
drug A concentration 10 µM, drug B concentration 0.000316228 µM	0.166	0.629
drug A concentration 10 µM, drug B concentration 0.001 µM	0.167	0.651
drug A concentration 10 µM, drug B concentration 0.00316228 µM	0.171	0.663
drug A concentration 10 µM, drug B concentration 0.01 µM	0.177	0.628
drug A concentration 10 µM, drug B concentration 0.0316228 µM	0.172	0.553
drug A concentration 10 µM, drug B concentration 0.1 µM	0.165	0.335
drug A concentration 10 µM, drug B concentration 0.316228 µM	0.166	0.228
drug A concentration 10 µM, drug B concentration 1 µM	0.157	0.177
drug A concentration 10 µM, drug B concentration 3.16228 µM	0.162	0.153
